# Reference: patent publication US20260273025A1, “TREATMENT AND PREVENTION OF OSTEOPOROSIS IN HIGH BODY MASS INDEX INDIVIDUALS” (Radius Health, Inc., priority 2021, published 2026)
# Entries after “also recorded” stand apart in the source; their conditions may differ.
# Key:
# [1] = system: postmenopausal osteoporotic women; test: ACTIVE Phase 3 trial, post hoc high BMI subgroup: safety, treatment-emergent adverse events; type: in vivo, human; details: for Creatine renal clearance increased, (%): human
# Method: (§1) The ACTIVE pivotal Phase 3 fracture prevention trial for the PTHrP analogue abaloparatide, Study BA058-05-003 (see ClinicalTrials.gov), was a randomized, double-blind, placebo-controlled trial in postmenopausal osteoporotic women randomized to receive daily doses of one of the following for 18 months: 80 micrograms (μg) of abaloparatide; a matching placebo; or the approved daily dose of 20 μg of teriparatide. Treatment with abaloparatide at a daily dose of 80 μg or placebo remained blinded to all parties throughout the study. Teriparatide used was a proprietary prefilled drug and device combination that could not be repackaged. Therefore, its identity could not be blinded to treating physicians and patients once use began. Study medication was self-administered daily by subcutaneous injection for a maximum of 18 months. All enrolled patients also received calcium and vitamin D supplementation from the time of enrollment until the end of the treatment period. It was recommended to patients that they also continue these supplements through the one-month follow-up period.
# (§2) The trial completed enrollment in March 2013 with 2,463 patients at 28 medical centers in 10 countries in the United States, Europe, Latin America, and Asia. In a post hoc analysis, a subgroup of overweight patients, patients with high BMI (≥27 kg/m^2, ≥24 kg/m^2 for Asian patients) was evaluated. The baseline characteristics of this sub-group of patients are detailed in Table 1 below.
# Safety evaluations performed in the ACTIVE trial included physical examinations, vital signs, 12-lead electrocardiograms, or ECGs, clinical laboratory tests and monitoring, and recording of adverse events. Specific safety assessments included pre-dose and post-dose (four hours) determination of serum calcium, determination of creatinine clearance, post-dose ECG assessments at selected visits, and assessments of postural hypotension (60 minutes post-dose) at selected clinic visits.
# The ACTIVE trial also evaluated several potential safety measures. The treatment-emergent adverse events (TEAEs) reported by the overweight patients are summarized below in Table 2 for groups treated with placebo, abaloparatide, and teriparatide, respectively.
# [2] = system: subjects treated with abaloparatide; test: Bone turnover markers PINP and CTX in treated subjects; type: in vivo, human
# [3] = system: postmenopausal osteoporotic women; test: ACTIVE Phase 3 trial, post hoc high BMI subgroup: new vertebral fractures; type: in vivo, human; details: overweight population, 18 months; for relative risk reduction of new vertebral fractures versus placebo: abaloparatide 80 μg or teriparatide 20 μg daily subcutaneous
# Method: as §1, §2
# (§3) The study enrolled otherwise healthy ambulatory women aged 49 to 86 (inclusive) who had been postmenopausal for at least five years, met the study entry criteria, and had provided written informed consent. […] All patients were to be in good general health as determined by medical history, physical examination (including vital signs), and clinical laboratory testing. This study population contained a patient population reflective of the type of severe osteoporosis patients that specialists would be expected to treat in their practices.
# The study endpoints included BMD, new vertebral fractures, nonvertebral fractures (fractures excluding those of the spine, sternum, patella, digits, skull, and face and those with high trauma), any clinical fractures (all fractures causing a patient to seek medical care), and major osteoporotic fractures (fractures of the upper arm, wrist, hip, or clinical spine). […] Time to first incident nonvertebral, clinical, major osteoporotic, and wrist fracture assessed using Kaplan-Meier (KM) method; log-rank test (intent-to-treat [ITT] population). Change from baseline BMD evaluated for total hip, femoral neck, and lumbar spine (missing data points imputed by last observation carried forward; ITT population).
# [4] = system: subjects treated with abaloparatide; test: Abaloparatide for 18 months followed by anti-resorptive therapy: fracture risk; type: in vivo, human; details: abaloparatide 18 months followed by anti-resorptive therapy (e.g., alendronate for 6 months)
# [5] = system: subjects treated with abaloparatide; test: Trabecular bone score (TBS) in treated subjects; type: in vivo, human
# Text: TBS is also a predictor of fragility fractures of the spine and hip in postmenopausal overweight women independent of BMD and other major clinical risk factors. As such, it captures additional patients at risk of fracture that are missed by BMD alone, and together with BMD more accurately captures bone strength.
# [6] = system: ovariectomy-induced osteopenic rats; details: cited from earlier work
# [7] = system: postmenopausal osteoporotic women; test: ACTIVE Phase 3 trial, post hoc high BMI subgroup: nonvertebral, clinical, major osteoporotic and wrist fractures (Kaplan-Meier); type: in vivo, human
# Method: as §1, §2, §3
# (§4) The study endpoints included BMD, new vertebral fractures, nonvertebral fractures (fractures excluding those of the spine, sternum, patella, digits, skull, and face and those with high trauma), any clinical fractures (all fractures causing a patient to seek medical care), and major osteoporotic fractures (fractures of the upper arm, wrist, hip, or clinical spine). New vertebral fracture compared using Fisher exact test (modified intent-to-treat [mITT] population; participants with pretreatment/postbaseline spine x-rays). Time to first incident nonvertebral, clinical, major osteoporotic, and wrist fracture assessed using Kaplan-Meier (KM) method; log-rank test (intent-to-treat [ITT] population). Change from baseline BMD evaluated for total hip, femoral neck, and lumbar spine (missing data points imputed by last observation carried forward; ITT population).
# [8] = system: ovariectomy-induced osteopenic monkeys; details: cited from earlier work
# [9] = system: postmenopausal osteoporotic women; test: ACTIVE Phase 3 trial, post hoc high BMI subgroup: BMD percent change from baseline; type: in vivo, human; details: for BMD increase as compared to placebo: total hip, femoral neck, lumbar spine
# Method: as §1, §2, §3, §4
# [10] = overweight patients, abaloparatide n = 262, teriparatide n = 281
# [11] = overweight population, 18 months
# [12] = overweight patients, 6, 12 and 18 months
molecule,measurement,setting,value
abaloparatide,"Creatine renal clearance increased, (%)",[1]; in vivo,(5.7) %
same,"Arthralgia, (%)",[1]; in vivo,(9.2) %
same,"Back pain, (%)",[1]; in vivo,(8.0) %
same,"Discontinuations, (%)",[1]; in vivo,(5.7) %
same,"Dizziness, (%)",[1]; in vivo,(11.1) %
same,"Urinary tract infection, (%)",[1]; in vivo,(6.9) %
same,"≥1 TEAE, (%)",[1]; in vivo,(91.6) %
same,"Deaths, (%)",[1]; [10],(0.8) %
same,"Headache, (%)",[1]; [10],(5.0) %
same,"Hypercalciuria, (%)",[1]; [10],(9.5) %
same,"Hypertension, (%)",[1]; [10],(9.5) %
same,"Influenza, (%)",[1]; [10],(6.1) %
same,"Nasopharyngitis, (%)",[1]; [10],(5.0) %
same,"Nausea, (%)",[1]; [10],(6.1) %
same,"Pain in extremity, (%)",[1]; [10],(6.9) %
same,"Serious TEAEs, (%)",[1]; [10],(13.7) %
same,"Upper respiratory tract infection, (%)",[1]; [10],(8.8) %
same,CTX marker (bone resorption),[2]; at 18 months,quick return to the baseline
same,bone formation marker PINP,"[2]; human, in vivo",earlier increase
same,"new vertebral fractures, reduction vs. placebo",[3],statistically significant reduction; also recorded: significant risk reduction
same,relative risk reduction of new vertebral fractures versus placebo,[3],81%
same,fracture risk versus placebo for 18 months followed by similar anti-resorptive therapy,[4],significant reduction
same,trabecular bone score (TBS),"[5]; daily dose of 20 μg, 40 μg or 80 μg for 12 weeks to 24 weeks",significantly increase TBS
same,trabecular bone score (TBS),"[5]; human, in vivo",significant increase
same,bone loss,[6],complete reversal of bone loss
same,"clinical fractures, reduction versus placebo",[7]; [11],statistically significant reduction; also recorded: numerical reduction
same,"major osteoporotic fractures (MOF), reduction versus placebo (Kaplan-Meier estimated cumulative incidence)",[7]; [11],statistically significant reduction; also recorded: significant risk reduction
same,"non-vertebral fractures (NVF), reduction versus placebo (Kaplan-Meier estimated cumulative incidence)",[7]; [11],statistically significant reduction; also recorded: significant risk reduction
same,"wrist fracture, reduction versus placebo",[7]; [11],numerical reduction
same,"effect on NVF, clinical fractures, MOF and wrist fractures compared with teriparatide","[7]; overweight population, all categories",significantly better than teriparatide
same,"risk of major osteoporotic fracture and any clinical fracture, irrespective of baseline fracture probability (FRAX)",[7]; postmenopausal overweight women,significantly decrease
same,bone loss,[8],complete reversal of bone loss
same,lumbar spine BMD versus placebo,[9]; at 6 months and 12 months,statistically significant increase
same,lumbar spine BMD,[9]; at 18 months,non-statistically significant BMD increase
same,BMD increase at total hip as compared to teriparatide,[9]; [12],significantly greater BMD increase
same,BMD increase for lumbar spine as compared to teriparatide,"[9]; overweight patients, 6 months",significantly greater BMD increase
same,BMD increase at the femoral neck as compared to teriparatide,"[9]; overweight patients, 12 and 18 months",significantly greater BMD increase
same,BMD increase as compared to placebo,[9]; [12],significant improvements
same,BMD increase as compared to placebo,"[9]; overweight patients, 6, 12 and 18 months, listed as abaloparatide",significantly greater BMD increase
same,BMD in total hip and femoral neck versus teriparatide or placebo,[9]; treated for 18 months,significant BMD increase
"CC[C@H](C)[C@H](NC(=O)[C@H](CCC(=O)O)NC(=O)[C@H](CO)NC(=O)[C@@H](NC(=O)[C@@H](N)CO)C(C)C)C(=O)N[C@@H](CCC(N)=O)C(=O)N[C@@H](CC(C)C)C(=O)N[C@@H](CCSC)C(=O)N[C@@H](Cc1cnc[nH]1)C(=O)N[C@@H](CC(N)=O)C(=O)N[C@@H](CC(C)C)C(=O)NCC(=O)N[C@@H](CCCCN)C(=O)N[C@@H](Cc1cnc[nH]1)C(=O)N[C@@H](CC(C)C)C(=O)N[C@@H](CC(N)=O)C(=O)N[C@@H](CO)C(=O)N[C@@H](CCSC)C(=O)N[C@@H](CCC(=O)O)C(=O)N[C@@H](CCCN=C(N)N)C(=O)N[C@H](C(=O)N[C@@H](CCC(=O)O)C(=O)N[C@@H](Cc1c[nH]c2ccccc12)C(=O)N[C@@H](CC(C)C)C(=O)N[C@@H](CCCN=C(N)N)C(=O)N[C@@H](CCCCN)C(=O)N[C@@H](CCCCN)C(=O)N[C@@H](CC(C)C)C(=O)N[C@@H](CCC(N)=O)C(=O)N[C@@H](CC(=O)O)C(=O)N[C@H](C(=O)N[C@@H](Cc1cnc[nH]1)C(=O)N[C@@H](CC(N)=O)C(=O)N[C@@H](Cc1ccccc1)C(=O)O)C(C)C)C(C)C [Teriparatide, teriparatide]","Creatine renal clearance increased, (%)",[1]; in vivo,(4.6) %
same,"Arthralgia, (%)",[1]; in vivo,(7.1) %
same,"Back pain, (%)",[1]; in vivo,(7.5) %
same,"Discontinuations, (%)",[1]; in vivo,(7.5) %
same,"Dizziness, (%)",[1]; in vivo,(8.2) %
same,"Headache, (%)",[1]; in vivo,(6.8) %
same,"Hypercalciuria, (%)",[1]; in vivo,(9.3) %
same,"Hypertension, (%)",[1]; in vivo,(6.4) %
same,"Nasopharyngitis, (%)",[1]; in vivo,(5.3) %
same,"Nausea, (%)",[1]; in vivo,(3.9) %
same,"Pain in extremity, (%)",[1]; in vivo,(3.6) %
same,"Serious TEAEs, (%)",[1]; in vivo,(13.9) %
same,"≥1 TEAE, (%)",[1]; in vivo,(89.3) %
same,"Deaths, (%)",[1]; [10],(0.4) %
same,"Influenza, (%)",[1]; [10],(3.9) %
same,"Upper respiratory tract infection, (%)",[1]; [10],(9.6) %
same,"Urinary tract infection, (%)",[1]; [10],(6.8) %
same,"new vertebral fractures, reduction vs. placebo",[3],significant reduction
same,relative risk reduction of new vertebral fractures versus placebo,[3],74%
same,"major osteoporotic fractures (MOF), reduction versus placebo (Kaplan-Meier estimated cumulative incidence)",[7]; [11],Significant reduction
same,"non-vertebral fractures (NVF), reduction versus placebo (Kaplan-Meier estimated cumulative incidence)",[7]; [11],Significant reduction
same,delay compared with the abaloparatide group to achieve the same level of BMD increase at total hip and femoral neck,[9]; overweight patients,about 6 months
same,BMD increase as compared to placebo,[9]; [12],significantly greater BMD increase
